In ChEMBL document CHEMBL3112408, “1,2,3-triazole-, arylamino- and thio-substituted 1,4-naphthoquinones: potent antitumor activity, electrochemical aspects, and bioisosteric replacement of C-ring-modified lapachones” (Bioorg Med Chem, 2014):
pIC50: −log10 of the molar value.

Test system: PC-3
Assay: Cytotoxicity against human PC3 cells assessed as cell viability after 72 hrs by MTT assay
Type: functional, cell-based
Details: PC-3, 72 h
For `O=C1C=C(NCc2cn(CN3C(=O)c4ccccc4C3=O)nn2)C(=O)c2ccccc21`, the pIC50 was < 4.92.
With `O=C1C=C(NCc2cn(CCN3C(=O)c4ccccc4C3=O)nn2)C(=O)c2ccccc21` the pIC50 was < 4.96.
For `O=C1C=C(NCc2cn(CCCN3C(=O)c4ccccc4C3=O)nn2)C(=O)c2ccccc21`, the pIC50 was < 4.96.

Test system: SF-295
Assay: Cytotoxicity against human SF295 cells assessed as cell viability after 72 hrs by MTT assay
Type: functional, cell-based
Details: SF-295, 72 h
For `O=C1C=C(NCc2cn(CN3C(=O)c4ccccc4C3=O)nn2)C(=O)c2ccccc21`, the pIC50 was < 4.92.
For `O=C1C=C(NCc2cn(CCN3C(=O)c4ccccc4C3=O)nn2)C(=O)c2ccccc21`, the pIC50 was < 4.96.
With `O=C1C=C(NCc2cn(CCCN3C(=O)c4ccccc4C3=O)nn2)C(=O)c2ccccc21` the pIC50 was < 4.96.

Test system: OVCAR-8
Assay: Cytotoxicity against human OVCAR8 cells assessed as cell viability after 72 hrs by MTT assay
Type: functional, cell-based
Details: OVCAR-8, 72 h
With `O=C1C=C(NCc2cn(CN3C(=O)c4ccccc4C3=O)nn2)C(=O)c2ccccc21` the pIC50 was < 4.92.
With `O=C1C=C(NCc2cn(CCN3C(=O)c4ccccc4C3=O)nn2)C(=O)c2ccccc21` the pIC50 was < 4.96.
With `O=C1C=C(NCc2cn(CCCN3C(=O)c4ccccc4C3=O)nn2)C(=O)c2ccccc21` the pIC50 was < 4.96.

Test system: MCF7
Assay: Cytotoxicity against human MCF7 cells assessed as cell viability after 72 hrs by MTT assay
Type: functional, cell-based
Details: MCF7, 72 h
For `O=C1C=C(NCc2cn(CN3C(=O)c4ccccc4C3=O)nn2)C(=O)c2ccccc21`, the pIC50 was < 4.92.
With `O=C1C=C(NCc2cn(CCN3C(=O)c4ccccc4C3=O)nn2)C(=O)c2ccccc21` the pIC50 was < 4.96.
For `O=C1C=C(NCc2cn(CCCN3C(=O)c4ccccc4C3=O)nn2)C(=O)c2ccccc21`, the pIC50 was < 4.96.

Test system: DU-145
Assay: Cytotoxicity against human DU145 cells assessed as cell viability after 72 hrs by MTT assay
Type: functional, cell-based
Details: DU-145, 72 h
For `O=C1C=C(NCc2cn(CN3C(=O)c4ccccc4C3=O)nn2)C(=O)c2ccccc21`, the pIC50 was < 4.92.
With `O=C1C=C(NCc2cn(CCN3C(=O)c4ccccc4C3=O)nn2)C(=O)c2ccccc21` the pIC50 was < 4.96.
In the case of `O=C1C=C(NCc2cn(CCCN3C(=O)c4ccccc4C3=O)nn2)C(=O)c2ccccc21`, the pIC50 was < 4.96.

Test system: MDA-MB-435
Assay: Cytotoxicity against human MDA-MB-435 cells assessed as cell viability after 72 hrs by MTT assay
Type: functional, cell-based
Details: MDA-MB-435, 72 h
For `O=C1C=C(NCc2cn(CN3C(=O)c4ccccc4C3=O)nn2)C(=O)c2ccccc21`, the pIC50 was < 4.92.
For `O=C1C=C(NCc2cn(CCN3C(=O)c4ccccc4C3=O)nn2)C(=O)c2ccccc21`, the pIC50 was < 4.96.
In the case of `O=C1C=C(NCc2cn(CCCN3C(=O)c4ccccc4C3=O)nn2)C(=O)c2ccccc21`, the pIC50 was < 4.96.

Test system: MX1
Assay: Cytotoxicity against human MX1 cells assessed as cell viability after 72 hrs by MTT assay
Type: functional, cell-based
Details: MX1, 72 h
With `O=C1C=C(NCc2cn(CN3C(=O)c4ccccc4C3=O)nn2)C(=O)c2ccccc21` the pIC50 was < 4.92.
For `O=C1C=C(NCc2cn(CCN3C(=O)c4ccccc4C3=O)nn2)C(=O)c2ccccc21`, the pIC50 was < 4.96.
For `O=C1C=C(NCc2cn(CCCN3C(=O)c4ccccc4C3=O)nn2)C(=O)c2ccccc21`, the pIC50 was < 4.96.

Test system: not listed separately
Assay: Cytotoxicity against human HCT8 cells assessed as cell viability after 72 hrs by MTT assay
Type: functional, cell-based
Details: HCT-8, 72 h
For `O=C1C=C(NCc2cn(CN3C(=O)c4ccccc4C3=O)nn2)C(=O)c2ccccc21`, the pIC50 was < 4.92.
With `O=C1C=C(NCc2cn(CCN3C(=O)c4ccccc4C3=O)nn2)C(=O)c2ccccc21` the pIC50 was < 4.96.
With `O=C1C=C(NCc2cn(CCCN3C(=O)c4ccccc4C3=O)nn2)C(=O)c2ccccc21` the pIC50 was < 4.96.

Test system: HL-60
Assay: Cytotoxicity against human HL60 cells assessed as cell viability after 72 hrs by MTT assay
Type: functional, cell-based
Details: HL-60, 72 h
With `O=C1C=C(NCc2cn(CN3C(=O)c4ccccc4C3=O)nn2)C(=O)c2ccccc21` the pIC50 was < 4.92.
With `O=C1C=C(NCc2cn(CCN3C(=O)c4ccccc4C3=O)nn2)C(=O)c2ccccc21` the pIC50 was < 4.96.
With `O=C1C=C(NCc2cn(CCCN3C(=O)c4ccccc4C3=O)nn2)C(=O)c2ccccc21` the pIC50 was < 4.96.

Test system: V79
Assay: Cytotoxicity against chinese hamster V79 cells assessed as cell viability after 72 hrs by MTT assay
Type: cell-based
Details: Cricetulus griseus, V79, 72 h
With `O=C1C=C(NCc2cn(CN3C(=O)c4ccccc4C3=O)nn2)C(=O)c2ccccc21` the pIC50 was < 4.92.
In the case of `O=C1C=C(NCc2cn(CCN3C(=O)c4ccccc4C3=O)nn2)C(=O)c2ccccc21`, the pIC50 was < 4.96.
With `O=C1C=C(NCc2cn(CCCN3C(=O)c4ccccc4C3=O)nn2)C(=O)c2ccccc21` the pIC50 was < 4.96.

Test system: not listed separately
Assay: Cytotoxicity against human Hs578T cells assessed as cell viability after 72 hrs by MTT assay
Type: functional, cell-based
Details: Hs-578T
In the case of `O=C1C=C(NCc2cn(CN3C(=O)c4ccccc4C3=O)nn2)C(=O)c2ccccc21`, the pIC50 was < 4.92.
In the case of `O=C1C=C(NCc2cn(CCN3C(=O)c4ccccc4C3=O)nn2)C(=O)c2ccccc21`, the pIC50 was < 4.96.
With `O=C1C=C(NCc2cn(CCCN3C(=O)c4ccccc4C3=O)nn2)C(=O)c2ccccc21` the pIC50 was < 4.96.

Test system: L929
Assay: Cytotoxicity against mouse L929 cells assessed as cell viability after 72 hrs by MTT assay
Type: ADME, cell-based
Details: L929, 72 h
For `O=C1C=C(NCc2cn(CN3C(=O)c4ccccc4C3=O)nn2)C(=O)c2ccccc21`, the pIC50 was < 4.92.
With `O=C1C=C(NCc2cn(CCN3C(=O)c4ccccc4C3=O)nn2)C(=O)c2ccccc21` the pIC50 was < 4.96.
In the case of `O=C1C=C(NCc2cn(CCCN3C(=O)c4ccccc4C3=O)nn2)C(=O)c2ccccc21`, the pIC50 was < 4.96.

Test system: PBMC
Assay: Cytotoxicity against human PBMC assessed as cell viability after 72 hrs by MTT assay
Type: cell-based
Details: not given
With `O=C1C=C(NCc2cn(CN3C(=O)c4ccccc4C3=O)nn2)C(=O)c2ccccc21` the pIC50 was < 4.92.
With `O=C1C=C(NCc2cn(CCN3C(=O)c4ccccc4C3=O)nn2)C(=O)c2ccccc21` the pIC50 was < 4.96.
For `O=C1C=C(NCc2cn(CCCN3C(=O)c4ccccc4C3=O)nn2)C(=O)c2ccccc21`, the pIC50 was < 4.96.

Test system: HCT-116
Assay: Cytotoxicity against human HCT116 cells assessed as cell viability after 72 hrs by MTT assay
Type: functional, cell-based
Details: HCT-116, 72 h
In the case of `O=C1C=C(NCc2cn(CN3C(=O)c4ccccc4C3=O)nn2)C(=O)c2ccccc21`, the pIC50 was < 4.92.
In the case of `O=C1C=C(NCc2cn(CCN3C(=O)c4ccccc4C3=O)nn2)C(=O)c2ccccc21`, the pIC50 was < 4.96.
In the case of `O=C1C=C(NCc2cn(CCCN3C(=O)c4ccccc4C3=O)nn2)C(=O)c2ccccc21`, the pIC50 was < 4.96.
